PubChem BioAssay (NCI)
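How tested: cells in 96-well plates exposed to compound for 48 hours at five concentrations. At the GI50, growth is halved. The concentration for full growth arrest is given as TGI.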

Key:
Assay in all cases: NCI-60 cell line screen, 48 h
[1] = tested on: SK-MEL-28 melanoma
[2] = tested on: M14 melanoma
[3] = tested on: NCI-H522 lung
[4] = tested on: A549 NSCLC
[5] = tested on: CCRF-CEM leukemia
[6] = tested on: MDA-MB-435
[7] = tested on: HS 578T breast
[8] = tested on: SF-295 CNS
[9] = tested on: CAKI-1 renal
[10] = tested on: SR leukemia
[11] = tested on: NCI/ADR-RES ovarian
[12] = tested on: HCT-15 colon
[13] = tested on: SW-620 colon
[14] = tested on: ACHN renal
[15] = tested on: MDA-MB-231 breast
[16] = tested on: UACC-257 melanoma
[17] = tested on: HCT-116 colon
[18] = tested on: SNB-75 CNS
[19] = tested on: HT29 colon
[20] = tested on: RXF 393 renal
[21] = tested on: COLO 205 colon
[22] = tested on: T-47D breast
[23] = tested on: A498 renal
[24] = tested on: K-562 leukemia
[25] = tested on: OVCAR-3 ovarian
[26] = tested on: UO-31 renal
[27] = tested on: TK-10 renal
[28] = tested on: UACC-62 melanoma
[29] = tested on: SK-MEL-2 melanoma
[30] = tested on: HOP-62 NSCLC
[31] = tested on: OVCAR-8 ovarian
[32] = tested on: PC-3 prostate
[33] = tested on: U251 CNS
[34] = tested on: MCF7 breast
[35] = tested on: EKVX NSCLC
[36] = tested on: NCI-H460 lung
[37] = tested on: DU-145 prostate
[38] = tested on: NCI-H226 lung
[39] = tested on: SK-MEL-5 melanoma
[40] = tested on: SF-268 CNS
[41] = tested on: NCI-H23 lung
[42] = tested on: HCC-2998 colon
[43] = tested on: LOX IMVI melanoma
[44] = tested on: SNB-19 CNS
[45] = tested on: MALME-3M melanoma
[46] = tested on: 786-0 renal
[47] = tested on: OVCAR-4 ovarian
[48] = tested on: BT-549 breast
[49] = tested on: SK-OV-3 ovarian
[50] = tested on: HL-60(TB) leukemia
[51] = tested on: HOP-92 NSCLC
[52] = tested on: SF-539 CNS
[53] = tested on: SN12C renal
[54] = tested on: MOLT-4 leukemia
[55] = tested on: KM12 colon
[56] = tested on: RPMI-8226 leukemia
[57] = tested on: OVCAR-5 ovarian

Question: What does the source list for O=C(N/N=C\c1c(O)ccc2ccccc12)C1CC1?
Answer: GI50 [1]: 17.8 µM; TGI [1]: > 100 µM; GI50 [2]: 3.76 µM; TGI [2]: 56 µM; GI50 [3]: 5.75 µM; TGI [3]: > 100 µM; GI50 [4]: 7.13 µM; TGI [4]: > 100 µM; GI50 [5]: 0.889 µM; TGI [5]: > 100 µM; GI50 [6]: 11.6 µM; TGI [6]: > 100 µM; GI50 [7]: 17.2 µM; TGI [7]: > 100 µM; GI50 [8]: 2.26 µM; TGI [8]: 8.23 µM; GI50 [9]: 1.6 µM; TGI [9]: 8.22 µM; GI50 [10]: 2.55 µM; TGI [10]: > 100 µM; GI50 [11]: 2.76 µM; TGI [11]: > 100 µM; GI50 [12]: 1.22 µM; TGI [12]: > 100 µM; GI50 [13]: 6.55 µM; TGI [13]: > 100 µM; GI50 [14]: 2.82 µM; TGI [14]: > 100 µM; GI50 [15]: 7.5 µM; TGI [15]: > 100 µM; GI50 [16]: 3.74 µM; TGI [16]: 97.1 µM; GI50 [17]: 3.04 µM; TGI [17]: > 100 µM; GI50 [18]: 6.68 µM; TGI [18]: 91.1 µM; GI50 [19]: 13 µM; TGI [19]: > 100 µM; GI50 [20]: 8.91 µM; TGI [20]: > 100 µM; GI50 [21]: 11.2 µM; TGI [21]: 93.8 µM; GI50 [22]: 4.9 µM; TGI [22]: > 100 µM; GI50 [23]: 16.8 µM; TGI [23]: 52 µM; GI50 [24]: 3.64 µM; TGI [24]: > 100 µM; GI50 [25]: 2.2 µM; TGI [25]: 46 µM; GI50 [26]: 0.863 µM; TGI [26]: 14.9 µM; GI50 [27]: 30.4 µM; TGI [27]: > 100 µM; GI50 [28]: 3.25 µM; TGI [28]: 22.8 µM; GI50 [29]: 18.9 µM; TGI [29]: > 100 µM; GI50 [30]: 4.34 µM; TGI [30]: 91.4 µM; GI50 [31]: 3.12 µM; TGI [31]: > 100 µM; GI50 [32]: 11.7 µM; TGI [32]: > 100 µM; GI50 [33]: 2.05 µM; TGI [33]: > 100 µM; GI50 [34]: 3.41 µM; TGI [34]: > 100 µM; GI50 [35]: 2.91 µM; TGI [35]: > 100 µM; GI50 [36]: 3 µM; TGI [36]: > 100 µM; GI50 [37]: 13.4 µM; TGI [37]: > 100 µM; GI50 [38]: 13.1 µM; TGI [38]: 84.2 µM; GI50 [39]: 3.81 µM; TGI [39]: > 100 µM; GI50 [40]: 4.1 µM; TGI [40]: > 100 µM; GI50 [41]: 5.94 µM; TGI [41]: > 100 µM; GI50 [42]: 9.8 µM; TGI [42]: > 100 µM; GI50 [43]: 1.79 µM; TGI [43]: > 100 µM; GI50 [44]: 12.9 µM; TGI [44]: > 100 µM; GI50 [45]: 7.76 µM; TGI [45]: 54 µM; GI50 [46]: 5.16 µM; TGI [46]: > 100 µM; GI50 [47]: 2.6 µM; TGI [47]: > 100 µM; GI50 [48]: 5.78 µM; TGI [48]: 88.7 µM; GI50 [49]: 3.36 µM; TGI [49]: 67.2 µM; GI50 [50]: 1.53 µM; TGI [50]: > 100 µM; GI50 [51]: 16.7 µM; TGI [51]: > 100 µM; GI50 [52]: 4.48 µM; TGI [52]: > 100 µM; GI50 [53]: 11.7 µM; TGI [53]: > 100 µM; GI50 [54]: 3.17 µM; TGI [54]: > 100 µM; GI50 [55]: 6.12 µM; TGI [55]: > 100 µM; GI50 [56]: 7.91 µM; TGI [56]: > 100 µM; GI50 [57]: 19.6 µM; TGI [57]: > 100 µM
